Measured values: patent publication US11986493B2 (University of Pittsburgh—Of the Commonwealth System of …, priority 2013, dated 2024)
Read-outs that look alike come from different tables or passages of the source.

Details: after inhalation
From the text: Measurement was made on mixed venous blood using PCW pullback samples at baseline (pre-dose) and at the maximally tolerated dose.

**Q.** With `O=NO` [nitrite, sodium nitrite] as the compound, how does the plasma nitrite concentration (45 mg dose) read?
**A.** 5 to 7 µM

**Q.** And the plasma nitrite concentration (90 mg dose)?
**A.** 8 to 10 µM
